A short description of data set [1]: Assessment of salt forms (solubility, hygroscopicity). As to conditions: salt form. In kind it is physicochemical. On the procedure:
Various salt forms of 2-(phenylethynyl)-1,3-thiazole were prepared, and their solubility, hygroscopicity, and physical state were assessed. The compound 2-phenylethynl-1,3-thiazole was prepared (see Example 8) as well as hydrochloric acid, fumaric acid, methylsulfonic acid and toluene sulfonic acid salt forms of the compound. The hydrochloric acid salt form of 2-(phenylethynyl)-1,3-thiazole is an oil. A fumaric acid salt form was not obtained by preparative steps including trituration with diethylether. Preparation of the methylsulfonate form results in a semi solid, hygroscopic material. These salt forms are typically unsuitable for certain pharmaceutical formulations, such as for tablets, capsules, and the like. In contrast to the salt forms of 2-(phenylethynyl)-1,3-thiazole, described previously, the tosylate salt form (i.e., the toluene sulfonic acid salt) is a solid having a melting point of about 129 up to 131° C. and is non-hygroscopic. Therefore, this form is presently preferred for pharmaceutical formulations of tablets, capsules, and the like.

The target in data set [2] is T1, hmGluR5a receptor (Homo sapiens, UniProt P41594).
T1 construct: expressed in transfected cells; host or cells: mouse fibroblast Ltk cells (hmGluR5a/L38-20 cell line)
T1 sequence (P41594 21-1180 isoform P41594-2 limits assumed): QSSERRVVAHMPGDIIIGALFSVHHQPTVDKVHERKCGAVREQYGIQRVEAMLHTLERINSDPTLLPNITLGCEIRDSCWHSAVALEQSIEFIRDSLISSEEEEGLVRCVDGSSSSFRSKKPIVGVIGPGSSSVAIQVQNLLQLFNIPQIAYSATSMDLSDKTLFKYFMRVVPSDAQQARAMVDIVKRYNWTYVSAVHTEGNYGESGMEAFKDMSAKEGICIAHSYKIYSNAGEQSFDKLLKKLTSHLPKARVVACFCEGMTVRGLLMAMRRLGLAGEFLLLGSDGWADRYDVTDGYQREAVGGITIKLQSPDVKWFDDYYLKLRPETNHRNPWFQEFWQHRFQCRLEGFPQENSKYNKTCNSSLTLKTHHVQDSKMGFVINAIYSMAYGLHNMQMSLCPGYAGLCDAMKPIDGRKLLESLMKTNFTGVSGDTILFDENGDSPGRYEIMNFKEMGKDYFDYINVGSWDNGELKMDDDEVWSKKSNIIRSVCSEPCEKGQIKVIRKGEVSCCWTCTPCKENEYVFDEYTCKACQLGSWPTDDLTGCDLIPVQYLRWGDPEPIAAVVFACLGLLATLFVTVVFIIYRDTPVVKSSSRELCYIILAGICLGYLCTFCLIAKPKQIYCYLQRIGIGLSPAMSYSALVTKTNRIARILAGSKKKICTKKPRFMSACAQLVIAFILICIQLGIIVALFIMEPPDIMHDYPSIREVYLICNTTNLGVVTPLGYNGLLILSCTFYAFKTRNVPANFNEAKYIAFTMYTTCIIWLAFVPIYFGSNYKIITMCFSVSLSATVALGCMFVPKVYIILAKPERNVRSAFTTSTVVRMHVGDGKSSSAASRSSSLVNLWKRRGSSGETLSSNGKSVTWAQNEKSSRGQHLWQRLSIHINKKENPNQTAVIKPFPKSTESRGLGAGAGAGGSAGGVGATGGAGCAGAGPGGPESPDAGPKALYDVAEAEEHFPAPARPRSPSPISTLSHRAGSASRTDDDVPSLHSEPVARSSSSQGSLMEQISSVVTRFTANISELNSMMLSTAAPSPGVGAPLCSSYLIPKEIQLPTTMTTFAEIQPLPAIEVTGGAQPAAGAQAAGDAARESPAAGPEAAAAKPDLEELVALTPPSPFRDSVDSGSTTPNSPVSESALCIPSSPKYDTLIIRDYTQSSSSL
In words: Calcium flux assay. In kind it is cell-based. As to conditions: hmGluR5a/L38-20 cells (mouse fibroblast Ltk), fura-2, glutamate 10 μM (EC80); read-out: Ca^2+ Flux. The protocol: The activity of compounds was examined against the hmGluR5a receptor stably expressed in mouse fibroblast Ltk cells (the hmGluR5a/L38-20 cell line). See generally Daggett et al., Neuropharmacology 34:871–886 (1995). Receptor activity was detected by changes in intracellular calcium ([Ca^++]i) measured using the fluorescent calcium-sensitive dye, fura-2. hmGluR5a/L38-20 cells were plated onto 96-well plates, and loaded with 3 μM fura-2 for 1 h. Unincorporated dye was washed from the cells, and the cell plate was transferred to a custom-built 96-channel fluorimeter (SIBIA-SAIC, La Jolla, Calif.) which is integrated into a fully automated plate handling and liquid delivery system. Cells were excited at 350 and 385 nm with a xenon source combined with optical filters. Emitted light was collected from the sample through a dichroic mirror and a 510-nm interference filter and directed into a cooled CCD camera (Princeton Instruments). Image pairs were captured approximately every 1 s, and ratio images were generated after background subtraction. After a basal reading of 20 s, an EC80 concentration of glutamate (10 μM) was added to the well, and the response evaluated for another 60 s. The glutamate-evoked increase in [Ca^++]i in the presence of the screening compound was compared to the response of glutamate alone (the positive control).
In general terms: A change in cytosolic calcium serves as a functional read-out for many receptors and channels.

The target of data set [3] is T2, hmGluR5 (Homo sapiens, UniProt P41594).
T2 construct: expressed in transfected cells; host or cells: mouse fibroblast Ltk cells (hmGluR5/L38-20 cells)
T2 sequence (P41594 21-1180 isoform P41594-2 limits assumed): as above
Kind of data set: Phosphatidylinositol hydrolysis (IP1) assay. Format: cell-based. The settings on record: hmGluR5/L38-20 cells (mouse fibroblast Ltk), [3H]-inositol, 10 μM glutamate, 1 hour; read-out: PI Hydrolysis. The protocol:
Inositol phophate assays were performed as described by Berridge et al. (1982) (Berridge et al, (1982) Biochem. J. 206:587–5950; and Nakajima et al., J. Biol. Chem. 267:2437–2442 (1992)) with slight modifications. Mouse fibroblast Ltk cells expressing hmGluR5 (hmGluR5/L38-20 cells) were seeded in 24-well plates at a density of 8×10^5 cells/well. One μCi of [^3H]-inositol (Amersham PT6-271; Arlington Heights, Ill.; specific activity=17.7 Ci/mmol) was added to each well and incubated for 16 h at 37° C. Cells were washed twice and incubated for 45 min in 0.5 ml of standard Hepes buffered saline buffer (HBS; 125 mM NaCl, 5 mM KCl, 0.62 mM MgSO4, 1.8 mM CaCl2, 20 mM HEPES, 6 mM Glucose, pH to 7.4). The cells were washed with HBS containing 10 mM LiCl, and 400 μl buffer added to each well. Cells were incubated at 37° C. for 20 min. For testing, 50 μl of 10X compounds used in the practice of the invention (made in HBS/LiCl (100 mM)) was added and incubated for 10 minutes. Cells were activated by the addition of 10 μM glutamate, and the plates left for 1 hour at 37° C.
The incubations were terminated by the addition of 1 ml ice-cold methanol to each well. In order to isolate inositol phosphates (IPs), the cells were scraped from wells, and placed in numbered glass test tubes. One ml of chloroform was added to each tube, the tubes were mixed, and the phases separated by centrifugation. IPs were separated on Dowex anion exchange columns (AG 1-X8 100–200 mesh formate form). The upper aqueous layer (750 ul) was added to the Dowex columns, and the columns eluted with 3 ml of distilled water. The eluents were discarded, and the columns were washed with 10 mls of 60 mM ammonium formate/5 mM Borax, which was also discarded as waste. Finally the columns were eluted with 4 ml of 800 mM ammonium formate/0.1 M formic acid, and the samples collected in scintillation vials. Scintillant was added to each vial, and the vials shaken, and counted in a scintillation counter after 2 hours. Phosphatidylinositol hydrolysis in cells treated with test compounds was compared to phosphatidylinositol hydrolysis in cells treated with control and the results are shown in Table 1.

Data set [4] relates to male Sprague-Dawley rats, CFA-inflamed hind paw. In words: Analgesic animal model (CFA model). Format: in vivo. Further details: key: +++: high analgesic efficacy. The settings on record: rat, 240 μmol/kg intraperitoneal, evaluated one to 24 hours post administration. The protocol: Compounds that modulate receptor-mediated analgesic responses wer tested in an animal model. Robust inflammation was induced by the injection of complete Freund's adjuvant (CFA, 10 mg/ml) subcutaneously into the hind paw of male Sprague-Dawley rats (150–175 g). The inflammatory response to CFA began approximately 12-hrs post-CFA injection and persisted for several days following inoculation. The inflamed hind paw became sensitive to noxious (paw pinch, plantar test) or innocuous (cold plate, Von Frey filaments) stimuli compared to the contralateral hind paw. Test compounds (240 μmol/kg) were administered via intraperitoneal injection. The analgesic activity of compounds was evaluated one to 24-hours post administration by assessing (1) the duration of analgesic effect; (2) threshold to elicit response; and (3) time from painful stimulus to response. […] For each group of animals, responses following drug administration were compared to responses prior to drug administration.

As a reminder, the melting point is the temperature, or range, at which the solid turns liquid.

Structures can show the parent of a compound that is named as a salt.

Turning to `C(#Cc1nccs1)c1ccccc1` [methylsulfonate form, 2-(phenylethynyl)-1,3-thiazole], the hygroscopicity entry in data set [1] is listed as “hygroscopic”.
Consider `Fc1ccc(C#Cc2nccs2)cc1` [Example 12, 2-[(4-Fluorophenyl)ethynyl]-1,3-thiazole], for which the melting point is 78 to 79 °C. Further, in data set [2], the IC50 was 100 to 1000 nM. The IC50 in data set [3] is 1000 to 10000 nM.
`Cc1nc(/C=C/c2ccccc2)no1` [Example 15, 5-Methyl-3-[(E)-2-phenylethenyl]-1,2,4-oxadiazole] yielded a melting point of 166 to 168 °C. In data set [2], the IC50 is more than 10000 nM. The IC50 in data set [3] was more than 100000 nM.
On to `C(#Cc1nccs1)c1ccccc1.Cc1ccc(S(=O)(=O)O)cc1` [Example 8, 2-(Phenylethynyl)-1,3-thiazole, p-toluenesulfonic acid salt], for which, in data set [1], the hygroscopicity entry was “non-hygroscopic” and the “solubility in aqueous medium” value is “soluble in aqueous medium”. The IC50 in data set [2] is not above 10 nM. The IC50 in data set [3] was 100 to 1000 nM. Further, in data set [4], the “CFA Model (analgesic efficacy)” value is “+++”.
For the compound `Cc1n[nH]c(/C=C/c2ccccc2)n1` [Example 18, 3-Methyl-5-[(E)-2-phenylethenyl]-1H-1,2,4-triazole], the melting point lay in the range of 131 to 134 °C. In addition, the IC50 in data set [2] is more than 10000 nM. In addition, the IC50 in data set [3] was more than 100000 nM.
In turn, `Cn1ncnc1/C=C/c1ccccc1` [Example 17, 1-Methyl-5-[(E)-2-phenylethenyl]-1H-1,2,4-triazole] yielded a melting point of 67 to 70 °C. Besides, in data set [2], the IC50 is more than 10000 nM. In addition, in data set [3], the IC50 was more than 100000 nM.
For the compound `Cc1cccc(C#Cc2nccs2)c1` [Example 11, 2-[(3-methylphenyl)ethynyl]-1,3-thiazole], the IC50 in data set [2] lay within 10 to 100 nM; in data set [3], 100 to 1000 nM.
`OCc1nc(/C=C/c2ccccc2)ns1` [Example 20, {3-[(E)-2-phenylethenyl]-1,2,4-thiadiazol-5-yl}methanol]: the melting point was 119 to 120 °C. Besides, the IC50 in data set [2] is 1000 to 10000 nM. The IC50 in data set [3] was more than 100000 nM.
As for `Nc1nc(C#Cc2ccccc2)cs1` [Example 5, 4-(Phenylethynyl)-1,3-thiazol-2-amine, p-toluenesulfonic acid salt], the IC50 in data set [2] lay in the range of 10 to 100 nM; in data set [3], 100 to 1000 nM.
With `Cc1nc(C#Cc2ccccc2)cs1` [Example 4, 2-Methyl-4-(phenylethynyl)-1,3-thiazole, p-toluenesulfonic acid salt], the IC50 in data set [2] is not above 10 nM; in data set [3], not above 100 nM.
On the same counts, the results for `Cc1coc(/C=C/c2ccccc2)n1` [Example 1, 4-Methyl-2-[(E)-2-phenylethenyl]-1,3-oxazole] are 1000 to 10000 nM and 10000 to 100000 nM.
On the same counts, the results for `Cc1ncsc1C#Cc1ccccc1F` [Example 7, 5-[(2-Fluorophenyl)ethynyl]-4-methyl-1,3-thiazole] are 100 to 1000 nM and more than 100000 nM.
On the same counts, the results for `Cc1csc(C=Cc2ccccc2)n1` (mixture of isomers) [Example 2, 4-Methyl-2-[2-phenylethenyl]-1,3-thiazole] are 10 to 100 nM and 10000 to 100000 nM.
Regarding `Brc1csc(C#Cc2ccccc2)n1` [Example 9, 4-bromo-2-(phenylethynyl)-1,3-thiazole], the melting point was in the range of 79 to 82 °C. Further, the IC50 in data set [2] lay within 10 to 100 nM. Further, the IC50 in data set [3] was 1000 to 10000 nM.
On the same counts, the results for `Cc1cnc(C#Cc2ccccc2)s1` [Example 10, 5-Methyl-2-(phenylethynyl)-1,3-thiazole] are 82 to 83 °C, more than 10000 nM and more than 100000 nM.
Turning to `Cc1ccc(C#CC2=CCCCC2)s1` [Example 21, 2-(1-Cyclohexen-1-ylethynyl)-5-methylthiophene], the IC50 is more than 10000 nM in data set [2] and more than 100000 nM in data set [3].
Take `Cc1nc(/C=C/c2ccccc2)cs1` [Example 3, 2-Methyl-4-[(E)-2-phenylethenyl]-1,3-thiazole]: the IC50 in data set [2] lay in the range of 100 to 1000 nM; in data set [3], 1000 to 10000 nM.
On the same counts, the results for `Cc1ncsc1C#Cc1ccccc1` [Example 6, 4-Methyl-5-(phenylethynyl)-1,3-thiazole] are 10 to 100 nM and 10000 to 100000 nM.
As for `C(=C\c1ncno1)/c1ccccc1` [Example 16, 5-[(E)-2-phenylethenyl]-1,2,4-oxadiazole], the melting point lay in the range of 53 to 55 °C. Further, in data set [2], the IC50 was more than 10000 nM. In addition, in data set [3], the IC50 was more than 100000 nM.
On the same counts, the results for `CCOC(=O)c1nc(/C=C/c2ccccc2)ns1` [Example 19, Ethyl 3-[(E)-2-phenylethenyl]-1,2,4-thiadiazole-5-carboxylate] are 79 to 80 °C, 100 to 1000 nM and 10000 to 100000 nM.
On the same counts, the results for `Cc1nc(C#Cc2ccccc2)sc1C` [Example 14, 4,5-Dimethyl-2-(phenylethynyl)-1,3-thiazole] are 55 to 60 °C, not above 10 nM and 1000 to 10000 nM.
With `Fc1ccccc1C#Cc1nccs1` [Example 13, 2-[(2-Fluorophenyl)ethynyl]-1,3-thiazole], the IC50 in data set [2] was in the range of 10 to 100 nM; in data set [3], 100 to 1000 nM.

Source of the values: patent US6956049B1, “Methods of modulating processes mediated by excitatory amino acid receptors” (Merck & Co., Inc., priority 1999, dated 2005).
